Laboratory results: PMC9469097 (Frontiers in Pharmacology, 2022)
Like-named read-outs stand apart in the source and are kept apart here.

How the values were obtained:
[1] = target: CYP3A4 (Homo sapiens, UniProt P08684); assay: CYP3A4-catalyzed NEN 4-hydroxylation in HLMs (fluorescence-based assay)
Experimental: In brief, PBS (pH 7.4, 100 mM), herbal medicines (100 μg/ml, final concentration)/PTAs/solvent, NEN, G-6-P, G-6-PDH, MgCl2, and HLMs were added to the 96-well plate in turn, then the samples were vortexed and pre-incubated for 3 min at 37 °C. The oxidative reactions were initiated by adding β-NADP^+ to yield a final volume of 200 μl, then the formation rates of NEHN (hydroxylated metabolite of NEN) were continuously monitored for 30 min at 37 °C using a 96-well fluorescence microplate reader (SpectraMax® iD3, Molecular Devices, Austria). The percentage of organic solvent in all incubation is not over 1%.

[2] = target: CYP3A (Homo sapiens, UniProt P08684); assay: CYP3A-catalyzed midazolam 1′-hydroxylation in HLMs; assay type: biochemical; details: for IC50 at 30 min: human
Experimental: Following incubation for 30 min at 37 °C, and 200 μl ice-cold acetonitrile containing internal standard (IS, 90 ng/ml) was subsequently added to quench the oxidative reaction. The mixture was then centrifuged at 20,000 ×g, 4 °C for 20 min, and the supernatant was quantified by LC-MS/MS analysis as described in Supplementary Table S2.

[3] = Stability tests for target pentacyclic triterpenoid acids
[4] = Tissue distribution of PTAs of Styrax in rats; details: for exposure in rat plasma and rat liver: after single oral dose of Styrax (100 mg/kg)
Experimental: Nine Male Sprague-Dawley rats (250–300 g) were purchased from Shanghai Sippe-Bk Lab Animal Co., Ltd. (Shanghai, China) and were fed in Experimental Animal Center of SHUTCM. […] The rats were fasted overnight before dosing but were free to drink water. Nine rats were randomly divided into three groups (1, 2, and 4 h). […] Blood samples were collected from the abdominal aorta, and the tissues (including the liver, duodenum, jejunum, ileum and colon) were removed rapidly and placed on ice. After then, the blood samples were centrifuged at 8,000 rpm, 4 °C for 10 min, and the supernatant was stored at −80 °C until analysis.
Firstly, each tissue (such as liver, duodenum, jejunum, ileum, colon) was accurately weighed after sucking the water on tissue surface. Each tissue was put into an EP tube and then cut (3-5 times) by a scissor. After then, PBS (pH 7.4) and magnetic beads were added into EP tube, grind the tissue by a tissue grinder. The tissue grinding fluid was centrifuged at 9,000 g, 4 °C for 20 min. 50 μl tissue supernatant was diluted by adding 250 μl LC grade acetonitrile. The protein was precipitated by centrifuging at 20,000 ×g, 4 °C for 30 min and the supernatant was collected to determine the protein concentration by a BCA Protein Quantification Kit. After then, the concentrations of seven PTAs were determined by using UHPLC-Q-Orbitrap HRMS analysis.

[5] = Pharmacokinetic interaction between Styrax and midazolam (i.v. and i.g.) in rats; details: for AUC(0-inf) / Cmax / half-life: male, Sprague-Dawley, rat, plasma; for half-life: t1/2, rats
[6] = iv, 5 mg/kg, rats, midazolam i.v. 5 mg/kg, pretreated with Soybean oil
[7] = iv, 5 mg/kg, rats, midazolam i.v. 5 mg/kg, pretreated with Styrax i.g. 100 mg/kg
[8] = po, 20 mg/kg, rats, midazolam i.g. 20 mg/kg, pretreated with Soybean oil
[9] = po, 20 mg/kg, rats, midazolam i.g. 20 mg/kg, pretreated with Styrax i.g. 100 mg/kg
[10] = rats, midazolam i.g. 20 mg/kg, Styrax + midazolam vs Soybean oil + midazolam (fold)
[11] = rats, midazolam i.v. 5 mg/kg, Styrax + midazolam vs Soybean oil + midazolam

CYP3A4, sequence (P08684 whole entry): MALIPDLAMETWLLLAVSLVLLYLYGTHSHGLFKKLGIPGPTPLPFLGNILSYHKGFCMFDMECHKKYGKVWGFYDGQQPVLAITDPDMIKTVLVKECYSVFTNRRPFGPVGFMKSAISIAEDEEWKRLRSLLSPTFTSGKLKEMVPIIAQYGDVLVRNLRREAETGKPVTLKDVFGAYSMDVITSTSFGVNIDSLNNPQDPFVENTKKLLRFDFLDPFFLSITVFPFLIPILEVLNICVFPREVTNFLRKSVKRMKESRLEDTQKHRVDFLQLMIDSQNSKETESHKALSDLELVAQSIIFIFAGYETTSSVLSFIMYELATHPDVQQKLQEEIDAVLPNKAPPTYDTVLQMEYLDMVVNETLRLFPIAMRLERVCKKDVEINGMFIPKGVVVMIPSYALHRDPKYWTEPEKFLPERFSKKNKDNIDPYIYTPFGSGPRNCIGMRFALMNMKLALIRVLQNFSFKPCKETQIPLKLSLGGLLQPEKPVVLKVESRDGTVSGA
CYP3A, sequence (P08684 2-503): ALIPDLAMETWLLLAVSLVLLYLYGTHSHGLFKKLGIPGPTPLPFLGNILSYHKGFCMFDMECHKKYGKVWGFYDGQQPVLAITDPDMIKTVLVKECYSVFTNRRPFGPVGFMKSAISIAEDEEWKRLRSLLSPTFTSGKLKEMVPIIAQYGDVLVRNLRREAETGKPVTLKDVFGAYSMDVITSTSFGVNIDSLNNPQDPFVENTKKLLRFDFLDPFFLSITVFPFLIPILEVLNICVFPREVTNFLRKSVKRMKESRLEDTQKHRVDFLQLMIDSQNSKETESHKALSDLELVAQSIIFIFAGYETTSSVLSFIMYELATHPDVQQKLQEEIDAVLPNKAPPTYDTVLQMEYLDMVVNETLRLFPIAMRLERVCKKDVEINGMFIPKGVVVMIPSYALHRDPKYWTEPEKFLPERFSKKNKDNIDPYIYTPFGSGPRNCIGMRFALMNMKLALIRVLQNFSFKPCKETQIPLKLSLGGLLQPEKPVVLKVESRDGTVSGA

Row | Compound | IC50 [1] [µM] | IC50 at 30 min ([2]; microsomes, pH 7.4) [µM] | exposure in rat plasma and rat liver [4] | Stability, 4 ℃ Refrigerator (3 day, %) ([3]; nominal level 3.28 nmol/L) [%] | Stability, -20℃ freeze-thaw (3 times, %) ([3]; nominal level 3.28 nmol/L) [%] | Stability, Room temperature (24 h, %) ([3]; nominal level 3.28 nmol/L) [%] | Stability, 4 ℃ Refrigerator (3 day, %) ([3]; nominal level 20.48 nmol/L) [%] | Stability, -20℃ freeze-thaw (3 times, %) ([3]; nominal level 20.48 nmol/L) [%] | Stability, Room temperature (24 h, %) ([3]; nominal level 20.48 nmol/L) [%] | Stability, 4 ℃ Refrigerator (3 day, %) ([3]; nominal level 128.00 nmol/L) [%] | Stability, -20℃ freeze-thaw (3 times, %) ([3]; nominal level 128.00 nmol/L) [%] | Stability, Room temperature (24 h, %) ([3]; nominal level 128.00 nmol/L) [%] | other results
1 | C[C@H]1[C@H](C)CC[C@]2(C(=O)O)CC[C@]3(C)C(=CC[C@@H]4[C@@]5(C)C[C@@H](O)[C@H](O)C(C)(C)[C@@H]5CC[C@]43C)[C@H]12 [corosolic acid] | 41.9 ± 11.7 |  |  |  |  |  |  |  |  |  |  |  | IC50 at 30 min ([2]; human liver microsomes, pH 7.4, probe midazolam (1′-hydroxylation), midazolam 1′-hydroxylation, HLMs, read-out: IC50): 32.2 ± 5.63 µM; Stability, 4 ℃ Refrigerator (3 day, %) ([3]; nominal level 8.19 nmol/L): 105.13%; Stability, -20℃ freeze-thaw (3 times, %) ([3]; nominal level 8.19 nmol/L): 104.46%; Stability, Room temperature (24 h, %) ([3]; nominal level 8.19 nmol/L): 99.78%; Stability, 4 ℃ Refrigerator (3 day, %) ([3]; nominal level 51.20 nmol/L): 104.14%; Stability, -20℃ freeze-thaw (3 times, %) ([3]; nominal level 51.20 nmol/L): 100.45%; Stability, Room temperature (24 h, %) ([3]; nominal level 51.20 nmol/L): 99.91%; Stability, 4 ℃ Refrigerator (3 day, %) ([3]; nominal level 320.00 nmol/L): 97.82%; Stability, -20℃ freeze-thaw (3 times, %) ([3]; nominal level 320.00 nmol/L): 98.31%; Stability, Room temperature (24 h, %) ([3]; nominal level 320.00 nmol/L): 96.69%
2 | CC1(C)CC[C@]2(C(=O)O)CC[C@]3(C)C(=CC[C@@H]4[C@@]5(C)C[C@@H](O)[C@H](O)C(C)(C)[C@@H]5CC[C@]43C)[C@@H]2C1 [maslinic acid] | 3.44 ± 0.77 | 19.4 ± 3.04 | could not be detected |  |  |  |  |  |  |  |  |  | Stability, 4 ℃ Refrigerator (3 day, %) ([3]; nominal level 8.19 nmol/L): 101.20%; Stability, -20℃ freeze-thaw (3 times, %) ([3]; nominal level 8.19 nmol/L): 100.54%; Stability, Room temperature (24 h, %) ([3]; nominal level 8.19 nmol/L): 95.84%; Stability, 4 ℃ Refrigerator (3 day, %) ([3]; nominal level 51.20 nmol/L): 103.76%; Stability, -20℃ freeze-thaw (3 times, %) ([3]; nominal level 51.20 nmol/L): 100.05%; Stability, Room temperature (24 h, %) ([3]; nominal level 51.20 nmol/L): 99.51%; Stability, 4 ℃ Refrigerator (3 day, %) ([3]; nominal level 320.00 nmol/L): 97.98%; Stability, -20℃ freeze-thaw (3 times, %) ([3]; nominal level 320.00 nmol/L): 98.47%; Stability, Room temperature (24 h, %) ([3]; nominal level 320.00 nmol/L): 96.85%
3 | Cc1ncc2n1-c1ccc(Cl)cc1C(c1ccccc1F)=NC2 [midazolam] |  |  |  |  |  |  |  |  |  |  |  |  | AUC(0-inf) [5, 6]: 1.32 ± 0.13 µg·h/mL; AUC(0-inf) [5, 7]: 1.2 ± 0.114 µg·h/mL; Cmax [5, 6]: 3.26 ± 0.708 µg/mL; Cmax [5, 7]: 3.37 ± 0.57 µg/mL; half-life ([5]; iv, 5 mg/kg, midazolam i.v. 5 mg/kg, pretreated with Styrax i.g. 100 mg/kg): 0.52 ± 0.14 h; AUC(0-inf) [5, 8]: 0.211 ± 0.0872 µg·h/mL; AUC(0-inf) [5, 9]: 0.431 ± 0.217 µg·h/mL; Cmax [5, 8]: 0.129 ± 0.111 µg/mL; Cmax [5, 9]: 0.294 ± 0.277 µg/mL; half-life ([5]; po, 20 mg/kg, midazolam i.g. 20 mg/kg, pretreated with Soybean oil): 2.14 ± 0.28 h; half-life ([5]; po, 20 mg/kg, midazolam i.g. 20 mg/kg, pretreated with Styrax i.g. 100 mg/kg): 4.52 ± 3.96 h; Tmax Ratio ([5]; rats, midazolam i.g. 20 mg/kg, Styrax + midazolam vs Soybean oil + midazolam): 1.00; AUC(0-inf) Ratio [5, 10]: 2.04; Cmax Ratio [5, 10]: 2.28; t1/2 Ratio [5, 10]: 2.11; AUC(0-inf) Ratio [5, 11]: 0.91; Cmax Ratio [5, 11]: 1.03; Tmax Ratio [5, 11]: 1.00; t1/2 Ratio [5, 11]: 0.59; t1/2 ([5]; rats, midazolam i.v. 5 mg/kg, pretreated with Soybean oil): 0.88 ± 0.28 h
4 | CC1(C)CC[C@]2(C(=O)O)CC[C@]3(C)C(=CC[C@@H]4[C@@]5(C)CCC(=O)C(C)(C)[C@@H]5CC[C@]43C)[C@@H]2C1 [oleanonic acid] | 0.8 ± 0.06 | 0.99 ± 0.09 | very low exposure levels | 85.84 | 91.69 | 86.92 | 103.95 | 109.44 | 101.86 | 100.64 | 113.69 | 98.85 | local exposure to rat jejunum ([4]; 1 h after single oral dose of Styrax (100 mg/kg)): 745.69 nM/mg tissue protein
5 | CC1(C)CC[C@]2(C(=O)O)CC[C@]3(C)C(=CC[C@@H]4[C@@]5(C)CC[C@H](O)C(C)(C)[C@@H]5CC[C@]43C)[C@@H]2C1 [oleanolic acid] |  | 14.8 ± 2.34 | very low exposure levels | 105.69 | 103.79 | 103.28 | 102.19 | 105.51 | 99.64 | 104.96 | 105.16 | 99.00 | 
6 | C=C(C)[C@@H]1CC[C@]2(C(=O)O)CC[C@]3(C)[C@H](CC[C@@H]4[C@@]5(C)CCC(=O)C(C)(C)[C@@H]5CC[C@]43C)[C@@H]12 [betulonic acid] |  |  |  |  |  |  |  |  |  |  |  |  | IC50 ([1]; NEN 4-hydroxylation, HLMs): 0.96 ± 0.14 µM; IC50 ([2]; midazolam 1′-hydroxylation, HLMs): 2.51 ± 0.34 µM
7 | C=C(C)[C@@H]1CC[C@]2(C(=O)O)CC[C@]3(C)[C@H](CC[C@@H]4[C@@]5(C)CC[C@@H](O)C(C)(C)[C@@H]5CC[C@]43C)[C@@H]12 [epibetulinic acid] | 0.47 ± 0.08 | 0.64 ± 0.1 | very low exposure levels | 113.34 | 109.83 | 104.88 | 105.44 | 106.94 | 96.59 | 107.19 | 110.52 | 106.30 | 
8 | C=C(C)[C@@H]1CC[C@]2(C(=O)O)CC[C@]3(C)[C@H](CC[C@@H]4[C@@]5(C)CC[C@H](O)C(C)(C)[C@@H]5CC[C@]43C)[C@@H]12 [betulinic acid] | 4.11 ± 0.8 | 7.74 ± 0.95 | could not be detected | 100.20 | 104.81 | 98.14 | 102.78 | 99.04 | 102.89 | 102.12 | 110.33 | 103.89 | 
